Experimental data taken from patent US6703413B2 (Rhode Island Hospital, priority 1999, dated 2004).

Tested on: advanced recurrent glioblastoma multiforma
Assay: Clinical use in tumor patients
Assay type: in vivo, human
Procedure: Taurolidine was administered by i.p. lavage immediately following surgery for removal of recurrent ovarian tumors. For patients with glioblastoma, taurolidine was administered systemically.
Four patients, which were diagnosed with advanced recurrent glioblastoma multiforma, were treated with taurolidine. The prognosis for this group of patients was determined to be approximately 8 weeks of survival.

Q: `O=S1(=O)CCN(CN2CCS(=O)(=O)NC2)CN1` [Taurolidine, Bis-(1,1-dioxoperhydro-1,2,4-thiadiazinyl-4)methane] was tested. Which “patients in whom the tumor mass decreased or stayed the same” value (20 g i.v. over 6 hours twice a week, at least one 5 week regimen) did it give?
A: Its value is 3 out of the 4.

Q: And the tolerability in patients (i.p. lavage (recurrent ovarian tumors) or systemic (glioblastoma))?
A: The tolerability in patients was “well tolerated”.

Q: And the “survival after initiation of therapy, each patient alive” value (prognosis approximately 8 weeks)?
A: The value was at least 14 weeks.
